Experiment: xn = mol fraction of the nth substance listed
Conditions: 101 kPa, Liquid, Pycnometric method

C=CC(=O)OCC [ethyl propenoate] + CC#N
mass density [kg/m3]
Conditions | 293.15 K | 298.15 K | 303.15 K | 308.15 K | 313.15 K | 318.15 K
x2 = 0 | 921.76 | 915.95 | 910.14 | 904.33 | 898.52 | 892.71
x2 = 0.0611 | 918.24 | 912.49 | 906.74 | 900.99 | 895.24 | 889.48
x2 = 0.1197 | 914.45 | 908.75 | 903.05 | 897.35 | 891.64 | 885.93
x2 = 0.1852 | 909.73 | 904.07 | 898.4 | 892.73 | 887.06 | 881.39
x2 = 0.2385 | 905.48 | 899.84 | 894.2 | 888.55 | 882.9 | 877.25
x2 = 0.2966 | 900.45 | 894.83 | 889.21 | 883.58 | 877.95 | 872.32
x2 = 0.3675 | 893.69 | 888.1 | 882.5 | 876.9 | 871.3 | 865.7
x2 = 0.436 | 886.46 | 880.89 | 875.32 | 869.75 | 864.18 | 858.61
x2 = 0.4982 | 879.23 | 873.69 | 868.15 | 862.61 | 857.07 | 851.53
x2 = 0.5745 | 869.38 | 863.88 | 858.38 | 852.88 | 847.38 | 841.87
x2 = 0.6519 | 858.1 | 852.64 | 847.18 | 841.72 | 836.26 | 830.8
x2 = 0.725 | 846 | 840.58 | 835.16 | 829.74 | 824.32 | 818.9
x2 = 0.8185 | 828.05 | 822.69 | 817.33 | 811.97 | 806.6 | 801.23
x2 = 0.9145 | 805.92 | 800.6 | 795.28 | 789.96 | 784.63 | 779.3

C=CC(=O)OCCCC [butyl 2-propenoate] + CC#N
mass density [kg/m3]
Conditions | 293.15 K | 298.15 K | 303.15 K | 308.15 K | 313.15 K | 318.15 K
x2 = 0 | 898.85 | 894.1 | 889.35 | 884.6 | 879.85 | 875.1
x2 = 0.061 | 896.58 | 891.84 | 887.1 | 882.36 | 877.62 | 872.87
x2 = 0.1168 | 894.23 | 889.49 | 884.75 | 880.01 | 875.26 | 870.51
x2 = 0.1832 | 891.06 | 886.31 | 881.56 | 876.81 | 872.05 | 867.29
x2 = 0.2571 | 887.05 | 882.28 | 877.51 | 872.73 | 867.95 | 863.17
x2 = 0.3094 | 883.86 | 879.07 | 874.28 | 869.49 | 864.69 | 859.89
x2 = 0.3825 | 878.86 | 874.05 | 869.23 | 864.41 | 859.59 | 854.77
x2 = 0.4563 | 873.07 | 868.23 | 863.39 | 858.55 | 853.7 | 848.85
x2 = 0.5282 | 866.62 | 861.75 | 856.88 | 852.01 | 847.13 | 842.25
x2 = 0.5779 | 861.58 | 856.69 | 851.79 | 846.89 | 841.99 | 837.09
x2 = 0.6483 | 853.47 | 848.54 | 843.6 | 838.66 | 833.72 | 828.79
x2 = 0.7299 | 842.32 | 837.34 | 832.35 | 827.36 | 822.37 | 817.38
x2 = 0.8143 | 828.2 | 823.15 | 818.1 | 813.05 | 807.99 | 802.93
x2 = 0.9182 | 805.7 | 800.53 | 795.36 | 790.19 | 785.01 | 779.83

C=CC(=O)OC [methyl propenoate] + CC#N
mass density [kg/m3]
Conditions | 293.15 K | 298.15 K | 303.15 K | 308.15 K | 313.15 K | 318.15 K
x2 = 0 | 953.51 | 947.56 | 941.61 | 935.66 | 929.71 | 923.76
x2 = 0.0591 | 948.65 | 942.78 | 936.9 | 931.02 | 925.14 | 919.27
x2 = 0.1171 | 943.34 | 937.51 | 931.68 | 925.85 | 920.01 | 914.17
x2 = 0.17 | 938.02 | 932.22 | 926.42 | 920.62 | 914.81 | 909
x2 = 0.2356 | 930.83 | 925.06 | 919.29 | 913.52 | 907.75 | 901.97
x2 = 0.2977 | 923.4 | 917.66 | 911.92 | 906.18 | 900.43 | 894.68
x2 = 0.3615 | 915.12 | 909.41 | 903.7 | 897.99 | 892.28 | 886.56
x2 = 0.4343 | 904.86 | 899.19 | 893.52 | 887.85 | 882.17 | 876.49
x2 = 0.5014 | 894.57 | 888.94 | 883.31 | 877.67 | 872.03 | 866.39
x2 = 0.5738 | 882.48 | 876.9 | 871.32 | 865.73 | 860.14 | 854.55
x2 = 0.6537 | 867.83 | 862.31 | 856.79 | 851.26 | 845.73 | 840.2
x2 = 0.7623 | 845.33 | 839.89 | 834.45 | 829.01 | 823.57 | 818.13
x2 = 0.8155 | 833.04 | 827.65 | 822.26 | 816.87 | 811.47 | 806.07
x2 = 0.9074 | 809.47 | 804.14 | 798.81 | 793.47 | 788.13 | 782.79

C=CC(=O)OC(C)(C)C [tert-butyl acrylate] + CC#N
mass density [kg/m3]
Conditions | 293.15 K | 298.15 K | 303.15 K | 308.15 K | 313.15 K | 318.15 K
x2 = 0 | 884.13 | 879.66 | 875.2 | 870.74 | 866.28 | 861.82
x2 = 0.0772 | 881.52 | 877.05 | 872.58 | 868.11 | 863.64 | 859.17
x2 = 0.1496 | 878.71 | 874.23 | 869.74 | 865.25 | 860.76 | 856.27
x2 = 0.2216 | 875.53 | 871.02 | 866.51 | 861.99 | 857.47 | 852.95
x2 = 0.2983 | 871.66 | 867.11 | 862.56 | 858 | 853.44 | 848.88
x2 = 0.3643 | 867.87 | 863.28 | 858.69 | 854.1 | 849.51 | 844.91
x2 = 0.4345 | 863.31 | 858.68 | 854.05 | 849.42 | 844.78 | 840.14
x2 = 0.5074 | 857.88 | 853.2 | 848.52 | 843.84 | 839.16 | 834.47
x2 = 0.5769 | 851.91 | 847.18 | 842.45 | 837.72 | 832.98 | 828.24
x2 = 0.6465 | 844.97 | 840.18 | 835.39 | 830.6 | 825.8 | 821
x2 = 0.7141 | 837.1 | 832.24 | 827.38 | 822.52 | 817.66 | 812.8
x2 = 0.7821 | 827.76 | 822.83 | 817.9 | 812.96 | 808.02 | 803.08
x2 = 0.8603 | 814.71 | 809.68 | 804.64 | 799.6 | 794.56 | 789.51
x2 = 0.9345 | 799.24 | 794.08 | 788.92 | 783.75 | 778.58 | 773.41
